PMC7369637, “Inhibition of Resistance-Refractory P. falciparum Kinase PKG Delivers Prophylactic, Blood Stage, and Transmission-Blocking Antiplasmodial Activity” (Cell Chemical Biology, 2020)

System: metabolite levels in Pf trophozoites and schizonts
Assay: Metabolomics (UHPLC-MS) of treated trophozoites and schizonts
Assay type: cell-based, Plasmodium falciparum
Experimental: Metabolomics experiments were performed as described elsewhere ([Murithi et al., 2019]). […] Following several washes, metabolites were extracted by 90% methanol containing 0.5 μM ^13C^15N-labelled aspartate as an internal standard. Nitrogen-dried samples were stored at -80°C. Samples were resuspended in high-performance liquid chromatography (HPLC) grade water that contained 1 μM chlorpropamide as an internal standard. They were then analyzed by ultra-high-performance liquid chromatography mass spectrometry UHPLC-MS ([Allman et al., 2016]). Data analysis was performed using the el-MAVEN software and the Metaboanalyst package in R Studio ([Murithi et al., 2019]).

Which results are given for `O=C1C(O)=C([C@H]2CC[C@H](c3ccc(Cl)cc3)CC2)C(=O)c2ccccc21` [ATQ, Atovaquone]?
Log2 fold change in 2-Hydroxy-2-methylbutanedioic acid level (schizonts): -0.013; Log2 fold change in 2_3-Diphosphoglyceric acid level (schizonts): -0.049; Log2 fold change in 3-phosphoglycerate level (schizonts): -0.461; Log2 fold change in 4-aminobutyrate level (schizonts): 0.163; Log2 fold change in 4-phosphopantothenate level (schizonts): -0.471; Log2 fold change in 6-phospho-D-gluconate level (schizonts): -0.038; Log2 fold change in ADP-D-glucose level (schizonts): 0.078; Log2 fold change in CDP level (schizonts): -0.939; Log2 fold change in CMP level (schizonts): -0.776; Log2 fold change in D-glucosamine-1/6-phosphate level (schizonts): -0.254; Log2 fold change in D-sedoheptulose-1/7-phosphate level (schizonts): -0.253; Log2 fold change in DL-Pipecolic Acid level (schizonts): 0.155; Log2 fold change in DLH level (schizonts): 0.054; Log2 fold change in DLS level (schizonts): 0.295; Log2 fold change in FAD level (schizonts): 0.00635; Log2 fold change in FMN level (schizonts): -0.114; Log2 fold change in GDP level (schizonts): -0.131; Log2 fold change in GMP level (schizonts): 0.068; Log2 fold change in HVDD level (schizonts): 0.015; Log2 fold change in Hexose level (schizonts): 0.028; Log2 fold change in IMP level (schizonts): 0.230; Log2 fold change in N-Acetyl-L-alanine level (schizonts): -0.209; Log2 fold change in N-acetyl-L-ornithine level (schizonts): 0.067; Log2 fold change in N-acetyl-glutamate level (schizonts): 0.069; Log2 fold change in N-acetyl-glutamine level (schizonts): -0.075; Log2 fold change in N-carbamoyl-L-aspartate level (schizonts): 2.103; Log2 fold change in NAD+ level (schizonts): -0.089; Log2 fold change in NADP+ level (schizonts): -0.036; Log2 fold change in NADPH level (schizonts): 0.265; Log2 fold change in Octulose 8/1P level (schizonts): -0.088; Log2 fold change in Octulose Bisphosphate level (schizonts): -0.059; Log2 fold change in PD level (schizonts): 0.272; Log2 fold change in PE level (schizonts): 0.257; Log2 fold change in PEE level (schizonts): 0.222; Log2 fold change in PEEK level (schizonts): 0.220; Log2 fold change in PVNF level (schizonts): -0.058; Log2 fold change in Pyroglutamic acid level (schizonts): -0.420; Log2 fold change in Ribose-5-phosphate level (schizonts): -0.347; Log2 fold change in S-adenosyl-L-homocysteine level (schizonts): -0.090; Log2 fold change in Sedoheptulose bisphosphate level (schizonts): -0.159; Log2 fold change in UDP level (schizonts): -1.390; Log2 fold change in UDP-D-glucose level (schizonts): -0.006; Log2 fold change in UDP-D-glucuronate level (schizonts): -0.062; Log2 fold change in UDP-N-acetyl-glucosamine level (schizonts): -0.391; Log2 fold change in UMP level (schizonts): -1.267; Log2 fold change in a-ketoglutarate level (schizonts): -0.084; Log2 fold change in acetyl-CoA level (schizonts): -0.850; Log2 fold change in acetyl-aspartate level (schizonts): -0.355; Log2 fold change in alanine/sarcosine level (schizonts): -0.266; Log2 fold change in arginine level (schizonts): -0.203; Log2 fold change in asparagine level (schizonts): -0.008; Log2 fold change in aspartate level (schizonts): -0.839; Log2 fold change in coenzyme A level (schizonts): -0.075; Log2 fold change in cyclic-AMP level (schizonts): -0.213; Log2 fold change in cytidine level (schizonts): -0.213; Log2 fold change in dCDP level (schizonts): -0.147; Log2 fold change in dCMP level (schizonts): -0.462; Log2 fold change in dCTP level (schizonts): -0.058; Log2 fold change in dGDP/ADP level (schizonts): -0.147; Log2 fold change in dGMP/AMP level (schizonts): -0.148; Log2 fold change in dTDP level (schizonts): -1.164; Log2 fold change in dTMP level (schizonts): -1.035; Log2 fold change in dTTP level (schizonts): -0.979; Log2 fold change in dihydroorotate level (schizonts): 3.181; Log2 fold change in folate level (schizonts): -0.209; Log2 fold change in fructose-1-6-bisphosphate level (schizonts): -0.277; Log2 fold change in fructose-6-phosphate level (schizonts): -0.212; Log2 fold change in fumarate level (schizonts): -0.532; Log2 fold change in glutamate level (schizonts): 0.117; Log2 fold change in glutamine level (schizonts): -0.138; Log2 fold change in glutathione disulfide level (schizonts): -0.224; Log2 fold change in glutathione level (schizonts): -0.005; Log2 fold change in guanosine level (schizonts): 0.426; Log2 fold change in histidine level (schizonts): -0.171; Log2 fold change in hydroxyproline/Aminolevulinate level (schizonts): -0.254; Log2 fold change in hypoxanthine level (schizonts): -0.139; Log2 fold change in inosine level (schizonts): -0.136; Log2 fold change in isoleucine level (schizonts): -0.252; Log2 fold change in lysine level (schizonts): 0.587; Log2 fold change in malate level (schizonts): -0.393; Log2 fold change in maleic acid level (schizonts): -0.266; Log2 fold change in methionine level (schizonts): -0.241; Log2 fold change in nicotinate level (schizonts): -0.183; Log2 fold change in orotate level (schizonts): -1.303; Log2 fold change in pantothenate level (schizonts): -0.167; Log2 fold change in phenylalanine level (schizonts): -0.316; Log2 fold change in phosphoenolpyruvate level (schizonts): -0.095; Log2 fold change in proline level (schizonts): -0.320; Log2 fold change in pyruvate level (schizonts): -1.011; Log2 fold change in ribose level (schizonts): -0.223; Log2 fold change in ribose-phosphate level (schizonts): -0.313; Log2 fold change in ribulose-5-phosphate level (schizonts): -0.261; Log2 fold change in serine level (schizonts): 0.028; Log2 fold change in sn-glycerol-3-phosphate level (schizonts): -0.021; Log2 fold change in succinate/Methylmalonic acid level (schizonts): -0.382; Log2 fold change in thiamine level (schizonts): -0.051; Log2 fold change in threonine/homoserine level (schizonts): -0.072; Log2 fold change in tryptophan level (schizonts): -0.203; Log2 fold change in tyrosine level (schizonts): -0.165; Log2 fold change in xanthosine level (schizonts): -0.209; Log2 fold change in xanthosine-5-phosphate level (schizonts): -0.537; Log2 fold change in 2-Hydroxy-2-methylbutanedioic acid level (trophozoites): -0.127; Log2 fold change in 2_3-Diphosphoglyceric acid level (trophozoites): -0.381; Log2 fold change in 3-phosphoglycerate level (trophozoites): -0.429; Log2 fold change in 4-aminobutyrate level (trophozoites): 0.101; Log2 fold change in 4-phosphopantothenate level (trophozoites): -0.459; Log2 fold change in 6-phospho-D-gluconate level (trophozoites): -0.286; Log2 fold change in ADP-D-glucose level (trophozoites): -0.046; Log2 fold change in CDP level (trophozoites): -0.509; Log2 fold change in CMP level (trophozoites): -0.007; Log2 fold change in D-glucosamine-1/6-phosphate level (trophozoites): -0.044; Log2 fold change in D-sedoheptulose-1/7-phosphate level (trophozoites): -0.528; Log2 fold change in DL-Pipecolic Acid level (trophozoites): -0.217; Log2 fold change in DLH level (trophozoites): 0.019; Log2 fold change in DLS level (trophozoites): -0.123; Log2 fold change in FAD level (trophozoites): -0.090; Log2 fold change in FMN level (trophozoites): -0.124; Log2 fold change in GDP level (trophozoites): 0.014; Log2 fold change in GMP level (trophozoites): 0.614; Log2 fold change in HVDD level (trophozoites): 0.032; Log2 fold change in Hexose level (trophozoites): -0.376; Log2 fold change in IMP level (trophozoites): 0.044; Log2 fold change in N-Acetyl-L-alanine level (trophozoites): -0.316; Log2 fold change in N-acetyl-L-ornithine level (trophozoites): 0.096; Log2 fold change in N-acetyl-glutamate level (trophozoites): -0.170; Log2 fold change in N-acetyl-glutamine level (trophozoites): -0.082; Log2 fold change in N-carbamoyl-L-aspartate level (trophozoites): 3.058; Log2 fold change in NAD+ level (trophozoites): -0.186; Log2 fold change in NADP+ level (trophozoites): -0.065; Log2 fold change in NADPH level (trophozoites): -0.700; Log2 fold change in Octulose 8/1P level (trophozoites): -0.033; Log2 fold change in Octulose Bisphosphate level (trophozoites): -0.267; Log2 fold change in PD level (trophozoites): 0.177; Log2 fold change in PE level (trophozoites): 0.343; Log2 fold change in PEE level (trophozoites): -0.149; Log2 fold change in PEEK level (trophozoites): 0.046; Log2 fold change in PVNF level (trophozoites): -0.949; Log2 fold change in Pyroglutamic acid level (trophozoites): -0.555; Log2 fold change in Ribose-5-phosphate level (trophozoites): -0.276; Log2 fold change in S-adenosyl-L-homocysteine level (trophozoites): -0.313; Log2 fold change in Sedoheptulose bisphosphate level (trophozoites): -0.304; Log2 fold change in UDP level (trophozoites): -0.826; Log2 fold change in UDP-D-glucose level (trophozoites): -0.168; Log2 fold change in UDP-D-glucuronate level (trophozoites): -0.164; Log2 fold change in UDP-N-acetyl-glucosamine level (trophozoites): -0.499; Log2 fold change in UMP level (trophozoites): -0.377; Log2 fold change in a-ketoglutarate level (trophozoites): -0.00422; Log2 fold change in acetyl-CoA level (trophozoites): -0.783; Log2 fold change in acetyl-aspartate level (trophozoites): -0.358; Log2 fold change in alanine/sarcosine level (trophozoites): -0.389; Log2 fold change in arginine level (trophozoites): -0.197; Log2 fold change in asparagine level (trophozoites): -0.111; Log2 fold change in aspartate level (trophozoites): -0.858; Log2 fold change in coenzyme A level (trophozoites): -0.813; Log2 fold change in cyclic-AMP level (trophozoites): -0.306; Log2 fold change in cytidine level (trophozoites): -0.308; Log2 fold change in dCDP level (trophozoites): 0.078; Log2 fold change in dCMP level (trophozoites): 0.286; Log2 fold change in dCTP level (trophozoites): -0.396; Log2 fold change in dGDP/ADP level (trophozoites): -0.020; Log2 fold change in dGMP/AMP level (trophozoites): 0.757; Log2 fold change in dTDP level (trophozoites): -0.522; Log2 fold change in dTMP level (trophozoites): 0.797; Log2 fold change in dTTP level (trophozoites): -1.044; Log2 fold change in dihydroorotate level (trophozoites): 4.182; Log2 fold change in folate level (trophozoites): -0.409; Log2 fold change in fructose-1-6-bisphosphate level (trophozoites): -0.330; Log2 fold change in fructose-6-phosphate level (trophozoites): -0.341; Log2 fold change in fumarate level (trophozoites): -0.377; Log2 fold change in glutamate level (trophozoites): 0.025; Log2 fold change in glutamine level (trophozoites): -0.211; Log2 fold change in glutathione disulfide level (trophozoites): -0.238; Log2 fold change in glutathione level (trophozoites): -0.129; Log2 fold change in guanosine level (trophozoites): -0.368; Log2 fold change in histidine level (trophozoites): -0.281; Log2 fold change in hydroxyproline/Aminolevulinate level (trophozoites): -0.316; Log2 fold change in hypoxanthine level (trophozoites): -0.322; Log2 fold change in inosine level (trophozoites): -0.490; Log2 fold change in isoleucine level (trophozoites): -0.515; Log2 fold change in lysine level (trophozoites): 0.274; Log2 fold change in malate level (trophozoites): -0.381; Log2 fold change in maleic acid level (trophozoites): -0.226; Log2 fold change in methionine level (trophozoites): -0.384; Log2 fold change in nicotinate level (trophozoites): -0.467; Log2 fold change in orotate level (trophozoites): 0.364; Log2 fold change in pantothenate level (trophozoites): -0.383; Log2 fold change in phenylalanine level (trophozoites): -0.490; Log2 fold change in phosphoenolpyruvate level (trophozoites): -0.226; Log2 fold change in proline level (trophozoites): -0.424; Log2 fold change in pyruvate level (trophozoites): -0.797; Log2 fold change in ribose level (trophozoites): -0.358; Log2 fold change in ribose-phosphate level (trophozoites): -0.355; Log2 fold change in ribulose-5-phosphate level (trophozoites): -0.161; Log2 fold change in serine level (trophozoites): -0.067; Log2 fold change in sn-glycerol-3-phosphate level (trophozoites): 0.064; Log2 fold change in succinate/Methylmalonic acid level (trophozoites): -0.878; Log2 fold change in thiamine level (trophozoites): -0.352; Log2 fold change in threonine/homoserine level (trophozoites): -0.156; Log2 fold change in tryptophan level (trophozoites): -0.225; Log2 fold change in tyrosine level (trophozoites): -0.394; Log2 fold change in xanthosine level (trophozoites): -0.306; Log2 fold change in xanthosine-5-phosphate level (trophozoites): -0.737
